These are literature values, as cited in patent publication US20240066021A1, “METHODS FOR OPTIMIZING CFTR-MODULATOR THERAPY” (Children's Hospital Medical Center, priority 2021, published 2024).

Like-named read-outs stand apart in the source and are kept apart here.

The subject of data set [1] is patients with at least one G551D mutation.
For data set [2], the system named is patients treated with ivacaftor versus patients untreated with CFTR modulators.
Another data set has as its target HTR1B (Homo sapiens, UniProt P28222). The settings on record: Target HTR1B, Gene Symbol HTR1B.
In a further data set the target is mTOR (Homo sapiens, UniProt P42345). The note with it: Target mTOR, Gene Symbol MTOR.
A further data set concerns the target T1, TXNRD1 (Homo sapiens, UniProt Q16881).
T1 sequence (Q16881 151-649 limits assumed): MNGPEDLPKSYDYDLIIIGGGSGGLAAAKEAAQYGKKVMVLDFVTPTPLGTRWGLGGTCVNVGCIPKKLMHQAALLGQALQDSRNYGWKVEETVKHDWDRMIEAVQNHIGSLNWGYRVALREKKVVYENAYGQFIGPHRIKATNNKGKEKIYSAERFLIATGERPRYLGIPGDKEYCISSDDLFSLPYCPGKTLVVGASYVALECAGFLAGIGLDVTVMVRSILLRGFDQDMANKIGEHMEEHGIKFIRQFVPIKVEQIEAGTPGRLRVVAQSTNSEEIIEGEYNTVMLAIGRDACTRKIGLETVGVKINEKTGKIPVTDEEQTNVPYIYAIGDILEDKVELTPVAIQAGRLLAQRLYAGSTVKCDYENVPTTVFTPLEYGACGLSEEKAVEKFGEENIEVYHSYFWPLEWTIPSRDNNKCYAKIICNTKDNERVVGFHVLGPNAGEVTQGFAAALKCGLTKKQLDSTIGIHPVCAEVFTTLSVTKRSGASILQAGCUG

For another data set, the target named is NR2A (Homo sapiens, UniProt Q12879). The settings on record: Target NR2A, Gene Symbol GRIN2A.
NR2A, sequence (Q12879 23-1464, other chains not shown): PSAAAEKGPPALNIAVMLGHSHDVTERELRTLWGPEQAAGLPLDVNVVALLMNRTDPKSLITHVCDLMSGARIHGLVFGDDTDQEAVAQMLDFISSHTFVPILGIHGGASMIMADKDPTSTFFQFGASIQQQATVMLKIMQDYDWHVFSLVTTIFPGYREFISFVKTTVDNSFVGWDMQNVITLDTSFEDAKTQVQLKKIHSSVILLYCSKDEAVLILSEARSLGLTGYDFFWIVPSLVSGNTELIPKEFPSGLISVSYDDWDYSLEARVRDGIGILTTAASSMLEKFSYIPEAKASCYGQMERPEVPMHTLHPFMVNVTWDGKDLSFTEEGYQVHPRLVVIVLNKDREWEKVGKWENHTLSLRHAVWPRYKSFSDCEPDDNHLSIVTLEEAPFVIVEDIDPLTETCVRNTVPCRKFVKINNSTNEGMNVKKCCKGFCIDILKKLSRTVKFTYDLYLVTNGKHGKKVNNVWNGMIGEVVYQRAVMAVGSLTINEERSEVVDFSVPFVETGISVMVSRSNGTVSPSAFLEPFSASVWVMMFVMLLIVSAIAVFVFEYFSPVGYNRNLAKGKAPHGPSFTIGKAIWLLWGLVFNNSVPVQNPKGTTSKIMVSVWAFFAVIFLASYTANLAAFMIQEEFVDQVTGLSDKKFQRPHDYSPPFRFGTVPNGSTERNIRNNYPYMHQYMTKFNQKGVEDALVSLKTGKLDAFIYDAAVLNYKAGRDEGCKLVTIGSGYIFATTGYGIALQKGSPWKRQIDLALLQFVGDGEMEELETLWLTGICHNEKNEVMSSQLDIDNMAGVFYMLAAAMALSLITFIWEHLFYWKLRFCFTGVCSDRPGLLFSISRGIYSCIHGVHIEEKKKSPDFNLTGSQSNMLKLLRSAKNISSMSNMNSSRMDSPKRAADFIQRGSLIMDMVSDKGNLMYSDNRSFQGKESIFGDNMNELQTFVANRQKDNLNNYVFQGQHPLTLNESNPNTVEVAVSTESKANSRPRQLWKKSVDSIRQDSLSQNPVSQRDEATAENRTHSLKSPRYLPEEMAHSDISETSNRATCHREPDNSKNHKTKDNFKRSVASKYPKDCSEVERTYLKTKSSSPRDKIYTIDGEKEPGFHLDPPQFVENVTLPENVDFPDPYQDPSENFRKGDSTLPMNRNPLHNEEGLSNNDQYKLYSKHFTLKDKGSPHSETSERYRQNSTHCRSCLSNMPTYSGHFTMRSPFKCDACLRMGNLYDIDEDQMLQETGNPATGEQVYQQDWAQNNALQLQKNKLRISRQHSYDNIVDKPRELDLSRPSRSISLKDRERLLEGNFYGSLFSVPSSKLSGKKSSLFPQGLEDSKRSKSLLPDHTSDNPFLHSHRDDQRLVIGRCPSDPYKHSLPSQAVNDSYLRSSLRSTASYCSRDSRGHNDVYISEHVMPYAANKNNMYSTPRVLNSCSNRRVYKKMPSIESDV
Data set [3] has as its target PI3K catclass IB(p110-gamma) (Homo sapiens, UniProt P48736).
Where [4] appears, read: six months after drug initiation.

HTR1B, sequence (P28222 whole entry): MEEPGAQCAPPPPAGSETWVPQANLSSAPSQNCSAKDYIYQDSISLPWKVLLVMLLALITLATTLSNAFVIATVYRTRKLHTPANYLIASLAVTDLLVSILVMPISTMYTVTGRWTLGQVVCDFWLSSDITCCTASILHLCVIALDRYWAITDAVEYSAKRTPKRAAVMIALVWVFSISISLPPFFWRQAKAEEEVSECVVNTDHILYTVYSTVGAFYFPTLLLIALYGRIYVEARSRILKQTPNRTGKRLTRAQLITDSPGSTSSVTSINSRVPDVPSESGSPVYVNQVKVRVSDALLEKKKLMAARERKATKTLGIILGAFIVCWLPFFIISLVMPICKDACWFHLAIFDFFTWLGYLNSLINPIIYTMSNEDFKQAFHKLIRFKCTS
PI3K catclass IB(p110-gamma), sequence (P48736 whole entry): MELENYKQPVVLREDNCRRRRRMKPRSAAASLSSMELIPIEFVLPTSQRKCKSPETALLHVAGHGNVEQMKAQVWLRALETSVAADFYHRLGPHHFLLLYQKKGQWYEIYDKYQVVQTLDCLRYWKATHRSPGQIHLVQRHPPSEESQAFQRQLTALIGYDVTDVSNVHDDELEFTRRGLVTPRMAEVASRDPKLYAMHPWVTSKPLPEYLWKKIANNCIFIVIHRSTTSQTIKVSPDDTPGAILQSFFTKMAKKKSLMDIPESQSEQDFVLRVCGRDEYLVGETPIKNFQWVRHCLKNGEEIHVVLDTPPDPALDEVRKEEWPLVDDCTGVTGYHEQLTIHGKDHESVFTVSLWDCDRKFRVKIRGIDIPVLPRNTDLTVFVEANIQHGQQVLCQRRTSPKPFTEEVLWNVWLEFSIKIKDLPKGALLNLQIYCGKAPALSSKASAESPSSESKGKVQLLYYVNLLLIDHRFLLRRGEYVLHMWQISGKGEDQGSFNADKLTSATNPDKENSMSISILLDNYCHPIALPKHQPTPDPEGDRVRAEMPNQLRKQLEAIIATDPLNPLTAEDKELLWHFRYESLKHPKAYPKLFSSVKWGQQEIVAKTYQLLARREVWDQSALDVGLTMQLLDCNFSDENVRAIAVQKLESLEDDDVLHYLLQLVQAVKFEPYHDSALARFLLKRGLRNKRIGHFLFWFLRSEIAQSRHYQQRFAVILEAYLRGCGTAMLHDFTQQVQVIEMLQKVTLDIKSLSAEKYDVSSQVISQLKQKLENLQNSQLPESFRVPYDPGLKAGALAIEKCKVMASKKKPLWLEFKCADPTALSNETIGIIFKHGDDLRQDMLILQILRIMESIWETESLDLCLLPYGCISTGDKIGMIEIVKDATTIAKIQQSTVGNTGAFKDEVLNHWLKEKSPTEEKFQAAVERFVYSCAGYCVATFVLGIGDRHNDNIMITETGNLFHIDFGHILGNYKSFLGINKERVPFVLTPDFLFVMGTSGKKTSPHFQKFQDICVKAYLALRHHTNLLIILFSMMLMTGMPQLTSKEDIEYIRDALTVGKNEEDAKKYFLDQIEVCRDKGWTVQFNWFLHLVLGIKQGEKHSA

In the case of `CC(C)(C)c1cc(C(C)(C)C)c(NC(=O)c2c[nH]c3ccccc3c2=O)cc1O` [ivacaftor], in data set [1] (setting [4]), the “mean change in ppFEV1” value is on record as 6.7 (95% CI 4.9-8.5), the “mean change in weight” value is 2.5 kg, the “mean decline in sweat chloride” value is on record as −54 mEq and the “quality of life scores” value was “improvement”. In data set [1] (six months after drug initiation, p<0.001), the rate of hospitalization entry was “decreased”. In data set [1] (subjects with sweat chloride shifts by −40 to −80 mEq/L), the “portion of subjects with physiologic CFTR correction that did not have improvement in FEV1>5% (poor lung function response)” value is listed as around 50%. For the same compound, in data set [2] (longer term follow up), the BMI entry is “maintain improved”, the hospitalizations result is “decreasing” and the pulmonary exacerbations result is recorded as “decreasing”. Further, in data set [2] (versus patients untreated with CFTR modulators), the lung function decline entry is on record as “slowed”.
As to `CN[C@@H]1CCc2[nH]c3ccc(C(N)=O)cc3c2C1` [Frovatriptan], the Effect entry on HTR1B is “Activation”.
With `CO[C@H]1C[C@@H]2CC[C@@H](C)[C@@](O)(O2)C(=O)C(=O)N2CCCC[C@H]2C(=O)O[C@H]([C@H](C)C[C@@H]2CC[C@@H](OC(=O)C(C)(CO)CO)[C@H](OC)C2)CC(=O)[C@H](C)/C=C(\C)[C@@H](O)[C@@H](OC)C(=O)[C@H](C)C[C@H](C)/C=C/C=C/C=C/1C` [Temsirolimus intracellular, Temsirolimus], the Effect result on mTOR is given as “Inhibition”.
As for `CC(=O)[O-].CC(=O)[O-].CCc1c(CC)c2cc3nc(cnc4cc(OCCOCCOCCOC)c(OCCOCCOCCOC)cc4ncc4nc(cc1[n-]2)C(CCCO)=C4C)C(C)=C3CCCO.O.[Gd+3]` [Motexafin gadolinium], the Effect entry on TXNRD1 (Target TXNRD1, Gene Symbol TXNRD1) is “Inhibition”.
On to `CC(Cc1ccccc1)(NC(=O)CN)c1ccccc1` (stereo not drawn) [Remacemide], for which the Effect result at NR2A is listed as “Inhibition”.
As to `CN(C)CCc1c[nH]c2ccc(Cn3cncn3)cc12` [Rizatriptan], the Effect result on HTR1B is reported as “Activation”.
In the case of `CO[C@H]1C[C@@H]2CC[C@@H](C)[C@@](O)(O2)C(=O)C(=O)N2CCCC[C@H]2C(=O)O[C@H]([C@H](C)C[C@@H]2CC[C@@H](OCCO)[C@H](OC)C2)CC(=O)[C@H](C)/C=C(\C)[C@@H](O)[C@@H](OC)C(=O)[C@H](C)C[C@H](C)/C=C/C=C/C=C/1C` [Everolimus], the Effect result at mTOR is recorded as “Inhibition”.
For `NC(=O)CNC1Cc2ccccc2C1` [Indantadol], the Effect entry at NR2A was “Inhibition”.
For the compound `C=CCN(/C=C1/C(=O)O[C@H](COC)[C@@]2(C)C1=C(O)C(=O)C1=C2[C@H](OC(C)=O)C[C@]2(C)C(=O)CC[C@@H]12)CC=C` [Sonolisib], the Effect result in data set [3] is on record as “Inhibition”.
For the compound `COc1ccc(-c2ccc3c(N4CCOC[C@@H]4C)nc(N4CCOC[C@@H]4C)nc3n2)cc1CO` [AZD8055], on mTOR, the Effect result is given as “Inhibition”.
In the case of `CNS(=O)(=O)CCc1ccc2[nH]cc(C3CCN(C)CC3)c2c1` [Naratriptan], the Effect entry on HTR1B is given as “Activation”.
As to `Nc1nc(N)c2nc(-c3cccc(O)c3)c(-c3cccc(O)c3)nc2n1` [TG100115], the Effect entry in data set [3] (Target PI3K catclass IB(p110-gamma), Gene Symbol PIK3CG) is listed as “Inhibition”.
Take `Cn1c(COP(=O)(NCCBr)NCCBr)cnc1[N+](=O)[O-]` [Evofosfamide]: on TXNRD1, the Effect entry is “Inhibition”.
In the case of `CO[C@H]1C[C@@H]2CC[C@@H](C)[C@@](O)(O2)C(=O)C(=O)N2CCCC[C@H]2C(=O)O[C@H]([C@H](C)C[C@@H]2CC[C@@H](OP(C)(C)=O)[C@H](OC)C2)CC(=O)[C@H](C)/C=C(\C)[C@@H](O)[C@@H](OC)C(=O)[C@H](C)C[C@H](C)/C=C/C=C/C=C/1C` [Ridaforolimus], the Effect entry on mTOR was “Inhibition”.
Turning to `CN(C)CCc1c[nH]c2ccc(CS(=O)(=O)N3CCCC3)cc12` [Almotriptan], the Effect entry on HTR1B is on record as “Activation”.
